Experimental data published in ChEMBL document CHEMBL3430912, “GSK Tres Cantos Anti-Kinetoplastid Screening (TCAKS) Data”.

Tests used:
[1] = GSK_TCAKS: pIC50 HepG2 human cell line viability assay using luminiscence. […] Seeding density was checked to ensure that new mono-layers were not more than 50% confluent at the time of harvesting. Cell suspension was added to 500 mL of the same medium at a final density of 1.2 * 10^5 cells/mL. This cell suspension was dispensed (25 uL, 3000 cells per well) into 384-well clear-bottom plates using a Multidrop Combi dispenser. Prior to addition of the cell suspension, the screening compounds (250 nL) were pre-dispensed into the plates with an Echo liquid handler. Plates were incubated for 48 h at 37C, 5% CO2. After incubation, plates equilibrated at room temperature for 30 min before proceeding to develop the luminescent signal. The signal developer, CellTiter-Glo Reagent, was allowed to equilibrate at room temperature for 30 min and added to the plates (25uL per well) using a Multidrop Combi dispenser. Plates were left for 10 min at room temperature for stabilization and then read using a ViewLux.; assay type: toxicity, cell-based
[2] = system: Trypanosoma brucei brucei; assay: GSK_TCAKS: pIC50 Trypanosoma brucei viability assay using fluorescence intensity. Assay plates (1536-well) were prepared by dispensing 25nL of compound solution per well using an Echo acoustic dispenser (Labcyte).; assay type: functional, organism-based; conditions: Lister 427, 2 h
Trypanosoma cruzi [3] = assay: GSK_TCAKS: pIC50 Trypanosoma cruzi viability assay using beta-GAL activity. This assay was run at single shot at 5uM compound concentration per well. The biological reagents consisted of NIH-3T3 host cells and trypomastigotes parasitic cells; both cell types were set to a 3.3 * 10^5 cells/mL dilution in assay DMEM by means of a CASY cell counter device using a 60um capillary. 6 uL of the mixture were dispensed per well (about 1 * 10^3 host-cells and 1 * 10^3 parasites) with a Multidrop Combi dispenser. […] In all wells, the percentage of DMSO never exceeded 0.5%. Plates incubated for four days at 37C, 5% CO2. The substrate used for the assay fluorescence intensity (FLINT) readout was resorufin-beta-D-galactopiranoside (Sigma-Aldrich) at 5uM per well. It was diluted in PBS supplemented with the soft detergent Igepal (Fluka).; assay type: functional, organism-based, Mus musculus; conditions: Tulahuen, NIH3T3
Trypanosoma cruzi [4] = assay: (§1) GSK_TCAKS: pIC50 Trypanosoma cruzi Imaging: Infected Cells. […] Cells were then washed once with PBS before infection. T. cruzi trypomastigotes, collected at days 5 to 8 after infection from LLC-MK2 parasite infected cultures, were allowed to swim out for 4h at 37C from a centrifuged pellet (2,500 rpm/10 min/room temperature). Trypomastigotes were then collected and counted in a CASY Cell Counter. Trypomastigotes, in supplemented DMEM, were added to H9c2 cultures in a multiplicity of infection of 1 and incubated for 18 h. Cells were washed once with PBS before incubation of the infected H9c2 monolayer with trypsin (Life-Technologies) to detach cells from the flask. Cells were counted in a CASY Cell Counter using a 150 um capillary and their density set at 5 * 10^4 cells per mL in supplemented assay DMEM. Infected H9c2 were dispensed into 384-well poly-lysine coated assay plates at 50uL per well using a Multidrop Combi dispenser. After seeding them, the plates were incubated at 37C, 5% CO2 for 72h. Cultures were then fixed and stained by addition of 50 uL of a solution containing 8% formaldehyde and 4 uM DRAQ5 DNA dye (BioStatus, UK) per well. […] Five images were collected per well for reliable statistical analysis. Automated image analysis was performed with a script developed on Acapella High Content Imaging and Analysis Software (PerkinElmer). Output: percentage of infected cells per well as a second infection marker.; assay type: functional, organism-based, Rattus norvegicus; conditions: H9c2, 4 h
Leishmania donovani [5] = assay: GSK_TCAKS: pIC50 Leishmania donovani Imaging: Amastigotes/Macrophages. Assay plates (384-well) were prepared by adding 250nL of compound to each well. For single shot assay, the final compound concentration was 5 uM. […] Automated image analysis was performed with a script developed on Acapella High Content Imaging and Analysis Software (PerkinElmer). Output: Average number of amastigotes per macrophage cell were reported for each well.; assay type: functional, organism-based, Homo sapiens; conditions: THP-1
[6] = system: Trypanosoma brucei brucei; assay: GSK_TCAKS: pIC50 Trypanosoma brucei viability assay using luminiscence. Assay plates (1536-well) were prepared. T. brucei cultures were harvested and counted in a CASY cell counter. A parasite suspension was prepared at a final concentration of 5 * 10^4 cells/mL in complete HMI9 medium and 6uL was dispensed to all wells containing compounds using a Multidrop Combi dispenser. 6uL of HMI9 media with 0.4% DMSO were dispensed to control columns. Plates were incubated for 24 h at 37C, 5% CO2 then tempered for 10 min at room temperature. ATP content was quantified by adding 4 uL of CellTiter-Glo Reagent (Promega) according to the manufacturer's instructions. Luminescence was measured using a ViewLux.; assay type: functional, organism-based; conditions: Lister 427, CASY
Trypanosoma cruzi [7] = assay: GSK_TCAKS: pIC50 Trypanosoma cruzi Imaging: Amastigotes/Cell. […] Cells were then washed once with PBS before infection. T. cruzi trypomastigotes, collected at days 5 to 8 after infection from LLC-MK2 parasite infected cultures, were allowed to swim out for 4h at 37C from a centrifuged pellet (2,500 rpm/10 min/room temperature). Trypomastigotes were then collected and counted in a CASY Cell Counter. Trypomastigotes, in supplemented DMEM, were added to H9c2 cultures in a multiplicity of infection of 1 and incubated for 18 h. Cells were washed once with PBS before incubation of the infected H9c2 monolayer with trypsin (Life-Technologies) to detach cells from the flask. Cells were counted in a CASY Cell Counter using a 150 um capillary and their density set at 5 * 10^4 cells per mL in supplemented assay DMEM. Infected H9c2 were dispensed into 384-well poly-lysine coated assay plates at 50uL per well using a Multidrop Combi dispenser. After seeding them, the plates were incubated at 37C, 5% CO2 for 72h. Cultures were then fixed and stained by addition of 50 uL of a solution containing 8% formaldehyde and 4 uM DRAQ5 DNA dye (BioStatus, UK) per well. […] Five images were collected per well for reliable statistical analysis. Automated image analysis was performed with a script developed on Acapella High Content Imaging and Analysis Software (PerkinElmer). Output: number of amastigotes per cell as infection level measurement.; assay type: functional, organism-based, Rattus norvegicus; conditions: H9c2, 4 h
Leishmania donovani [8] = assay: GSK_TCAKS: pIC50 Leishmania donovani Imaging: Infected Macrophages. Assay plates (384-well) were prepared by adding 250nL of compound to each well. For single shot assay, the final compound concentration was 5 uM. […] Automated image analysis was performed with a script developed on Acapella High Content Imaging and Analysis Software (PerkinElmer). Output: Percent of infected macrophage cells were reported for each well.; assay type: functional, organism-based, Homo sapiens; conditions: THP-1
[9] = target: Sterol 14-alpha demethylase (Trypanosoma cruzi (strain CL Brener), UniProt Q7Z1V1); assay: GSK_TCAKS: pIC50 CYP51 from Trypanosoma cruzi.; assay type: functional
Leishmania donovani [10] = assay: GSK_TCAKS: pIC50 Leishmania donovani Imaging: THP-1 Host Macrophages. Assay plates (384-well) were prepared by adding 250nL of compound to each well. For single shot assay, the final compound concentration was 5 uM. […] Automated image analysis was performed with a script developed on Acapella High Content Imaging and Analysis Software (PerkinElmer). Output: THP-1 cell count were reported for each well.; assay type: functional, organism-based, Homo sapiens
Leishmania donovani [11] = assay: GSK_TCAKS: pIC50 Leishmania donovani viability assay using fluorescence intensity. Assay plates (1536-well) were prepared by adding 30nL per well of compound. For single shot assay, the final compound concentration was 5uM. […] Briefly, eGFP LdBOB axenic amastigotes were harvested, fixed and counted in a CASY cell counter (Roche-Applied Science). A final concentration of 1.5 * 10^5 cells per well were prepared in amastigote media containing 500 U/mL penicillin/streptomycin (Invitrogen) and 6uL was dispensed to each experimental well using a Multidrop Combi dispenser (Thermo Scientific). 6uL of assay media was dispensed to control columns used as reference for 100% compound response. Following incubation for 72 h at 37C, 5% CO2, 2 uL of resazurin was added to each well at a final concentration of 0.5 mM in phosphate buffered saline (PBS) with IGEPAL (Sigma-Aldrich), 0.05% (v/v).; assay type: functional, organism-based
Trypanosoma cruzi [12] = assay: as §1, with “H2C9” for “Trypanosoma cruzi”, “H9c2 Host Cardiomyocytes.” for “Infected Cells.”, “Number” for “percentage”, “H9c2 Host Cardiomyocytes nuclei to determine drug-related cytotoxicity.” for “infected cells per well as a second infection marker.”; assay type: functional, organism-based, Rattus norvegicus; conditions: H9c2, 4 h

Chain of Sterol 14-alpha demethylase (Q7Z1V1 whole entry): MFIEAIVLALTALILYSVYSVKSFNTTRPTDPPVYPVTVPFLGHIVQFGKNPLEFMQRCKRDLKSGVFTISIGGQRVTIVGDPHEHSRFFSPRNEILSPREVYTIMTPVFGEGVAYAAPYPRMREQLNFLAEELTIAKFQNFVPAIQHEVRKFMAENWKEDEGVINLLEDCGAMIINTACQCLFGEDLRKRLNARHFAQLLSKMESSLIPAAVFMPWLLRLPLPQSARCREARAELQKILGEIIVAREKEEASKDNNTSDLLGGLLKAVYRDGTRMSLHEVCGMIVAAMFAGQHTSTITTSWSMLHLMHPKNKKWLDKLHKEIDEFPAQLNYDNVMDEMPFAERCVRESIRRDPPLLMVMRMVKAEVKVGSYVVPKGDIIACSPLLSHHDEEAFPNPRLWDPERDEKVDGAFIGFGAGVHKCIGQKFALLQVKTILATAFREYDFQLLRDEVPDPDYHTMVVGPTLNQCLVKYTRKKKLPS

SMILES | IC50 at 48 h [1] [µM] | IC50 [2] [µM] | IC50 (Trypanosoma cruzi [3]) [µM] | IC50 (Trypanosoma cruzi [4]) [µM] | IC50 (Leishmania donovani [5]) [µM] | IC50 [6] [µM] | IC50 (Trypanosoma cruzi [7]) [µM] | IC50 (Leishmania donovani [8]) [µM] | IC50 [9] [µM] | IC50 (Leishmania donovani [10]) [µM] | IC50 (Leishmania donovani [11]) [µM] | IC50 (Trypanosoma cruzi [12]) [µM]
NCc1csc(Nc2cc(Oc3ccccc3)ncn2)n1 | > 100 | 0.631 | 31.6 | 25.1 | 25.1 | 0.794 | 31.6 | 25.1 | 0.316 | > 50.1 | > 50.1 | > 50.1
O=C(c1ccc(O)c(Cl)c1)N1CCN(c2cnccn2)CC1 | > 100 | > 39.8 | > 50.1 | > 50.1 | 3.16 | > 39.8 | 10 | 5.01 | > 100 | > 50.1 | 0.316 | > 50.1
O=C1CN(Cc2ccco2)C2CS(=O)(=O)CC2N1c1ccc(Cl)cc1 (configuration not stated) | > 100 | 0.316 | > 50.1 | > 50.1 | > 50.1 | 0.251 | > 50.1 | > 50.1 | > 100 | > 50.1 | > 50.1 | > 50.1
Cc1nc(-c2ccncc2)ncc1C(C)NC(=O)c1ccc(Cl)s1 (configuration not stated) | > 100 | 1 | 25.1 | 31.6 | > 50.1 | 1 | 20 | > 50.1 | 0.794 | > 50.1 | > 50.1 | > 50.1
Cn1nc(C(=O)N2CCc3ccccc32)c2c1CCS(=O)(=O)C2 | > 100 | 3.98 | 7.94 | 12.6 | 1.58 | 6.31 | 7.94 | 3.98 | > 100 | > 50.1 | 3.98 | > 50.1
CCc1nn(-c2ncc(F)c(NC(C)C)n2)c(N)c1C1CCCCC1 | 31.6 | 10 | 3.55 | 3.16 | 1.58 | 15.8 | 1.58 | 3.16 | > 100 | 15.8 | 3.16 | 1
C[C@@H](Oc1cc(-n2cnc3cc(N)ccc32)sc1C(N)=O)c1ccccc1Cl | 20 | 0.251 | 1.26 | 20 | 20 | 0.794 | 5.01 | 31.6 | 3.16 | 25.1 | 3.16 | 1
O=C(NCc1nnc2n1CCCCC2)c1csc(-c2ccccc2)n1 | > 100 | 0.316 | 2.51 | 2 | > 50.1 | 0.398 | 2 | > 50.1 | > 100 | > 50.1 | > 50.1 | > 50.1
Cc1nc2c(-c3nc(-c4ccccc4N)n[nH]3)cccn2c1C | 15.8 | 1 | 4.47 | 2.51 | 1 | 2.51 | 1.58 | 1.58 | 3.16 | 7.94 | 6.31 | 5.01
Cc1nc2c(-c3nc(-c4ccc(N)cc4)n[nH]3)cccn2c1C | 15.8 | 12.6 | 6.31 | > 50.1 | 1.58 | 25.1 | > 50.1 | 2 | > 100 | 12.6 | 3.16 | 10
OC[C@@H](Nc1nccc(-c2c(-c3ccc(F)cc3)ncn2C2CCNCC2)n1)c1ccccc1 | 100 | 0.398 | 31.6 | 12.6 | 31.6 | 0.631 | 12.6 | 31.6 | 25.1 | 31.6 | > 50.1 | 2
